From US9403806B1, “Cognition enhancing compounds and compositions, methods of making, and methods of treating” (NeuroSolis, Inc., priority 2010, dated 2016)
Blank lines part the entries; values can stand above or below the compound they belong to.

Experiments:
[1] = tested on: CD-1 Mice; test: Novel object recognition assay; assay type: in vivo; conditions: oral dose 3.0 mg/kg, 1 hr inter-trial interval
Text: Object recognition memory—judgment of the prior occurrence of objects—is a key part of human memory, and is commonly impaired in neurodegenerative diseases, such as Alzheimer's disease (Winters B D et al Neurosci Behav Rev 32 (2008) 1055-70). This may be modeled in laboratory rodents using delayed spontaneous novel object recognition, which tests the ability of an animal to recognize an object it has previously been exposed to, after a delay. Drugs may be evaluated for their ability to improve the animal's ability to remember, recall or recognize objects in this model.
CD-1 Mice (males, 7-8 weeks old) were fasted for 16 hrs and orally dosed with compounds of interest 30 min before experiments began. Throughout those 30 min, animals were left in their home cages except during a 1 min handling habituation session at 10 min post-dosing. All handling and experiments were carried out under low, indirect light during the hours between 8 am and 3 pm. Compound 122a and donepezil were dissolved in PBS. […] Mouse activity was recorded using a digital video camera and evaluated after the trial. The time each mouse spent with its nose in contact with either object (investigation) was recorded for each minute of T2, and a Discrimination Score (D Score) was calculated using the following formula once the animal completed a total of 1 min of investigation. […]

[2] = tested on: pooled male human liver microsomes; test: Metabolism in human liver microsomes, Example 45; assay type: in vitro ADME
In short: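 Pooled male human liver microsomes sampled every 2 hours, reactions stopped with 1% formic acid. After centrifugation and ultrafiltration, remaining parent compound quantified by reverse-phase C8 LC/MS/MS with electrospray and MRM transitions against a standard calibration curve.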

[3] = target: T1, human FMO1 Supersomes (Homo sapiens, UniProt Q01740); test: Metabolism by flavin monoxygenase 1 (FMO1) Supersomes; assay type: in vitro ADME; conditions: after 6 hours (FIG. 2)
T1 construct: purchased BD Biosciences 456241
T1 sequence (Q01740 1-532): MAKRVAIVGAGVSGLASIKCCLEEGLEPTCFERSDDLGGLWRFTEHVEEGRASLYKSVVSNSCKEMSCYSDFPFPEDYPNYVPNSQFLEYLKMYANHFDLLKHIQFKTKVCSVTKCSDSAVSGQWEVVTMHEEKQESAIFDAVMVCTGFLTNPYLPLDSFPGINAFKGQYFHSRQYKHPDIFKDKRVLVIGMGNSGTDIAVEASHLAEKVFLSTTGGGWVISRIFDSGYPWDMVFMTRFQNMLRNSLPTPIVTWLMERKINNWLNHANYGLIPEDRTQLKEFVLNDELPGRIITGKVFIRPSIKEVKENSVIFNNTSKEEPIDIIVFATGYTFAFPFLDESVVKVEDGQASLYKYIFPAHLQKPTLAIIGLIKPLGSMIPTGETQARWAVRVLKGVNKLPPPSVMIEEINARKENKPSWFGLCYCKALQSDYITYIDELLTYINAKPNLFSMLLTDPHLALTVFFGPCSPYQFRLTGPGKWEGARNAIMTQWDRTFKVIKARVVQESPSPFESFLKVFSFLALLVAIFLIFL
Method: […] Aliquots were removed every 10 minutes, and 1% formic acid was added to halt the reaction. Samples were centrifuged, filtered through 0.2 micron spinfilter and the amount of each compound in the supernatants was quantitated using LC/MS/MS.

[4] = tested on: pooled male Sprague-Dawley rat liver microsomes; test: Metabolism by rat liver microsomes; assay type: in vitro ADME; conditions: 6 hours incubation (FIG. 3)
Method: (§1) Compounds were incubated with pooled male Sprague-Dawley rat liver microsomes (BD Biosciences, #452501) and an NADP-regenerating system in a phosphate buffer (pH 7.4) for a total of 6 hours. Aliquots were removed every 2 hours, and 1% formic acid was added to halt the reaction. Samples were centrifuged, filtered through 0.2 micron spinfilter and the amount of each compound in the supernatants was quantitated using LC/MS/MS.

[5] = tested on: pooled male human liver microsomes; test: Metabolism by human liver microsomes, Example 33; assay type: in vitro ADME; conditions: 6 hours incubation (FIGS. 4A, 4B)
Method: as §1, with “human” for “Sprague-Dawley rat”, “#452172)” for “#452501)”

[6] = target: T2, human muscarinic M1 receptors (Homo sapiens, UniProt P11229); test: IP production in A9L cells with human M1 receptors (IPOne TR-FRET), Example 28; assay type: cell-based
T2 construct: host or cells: A9L cells
T2 sequence (P11229 1-460): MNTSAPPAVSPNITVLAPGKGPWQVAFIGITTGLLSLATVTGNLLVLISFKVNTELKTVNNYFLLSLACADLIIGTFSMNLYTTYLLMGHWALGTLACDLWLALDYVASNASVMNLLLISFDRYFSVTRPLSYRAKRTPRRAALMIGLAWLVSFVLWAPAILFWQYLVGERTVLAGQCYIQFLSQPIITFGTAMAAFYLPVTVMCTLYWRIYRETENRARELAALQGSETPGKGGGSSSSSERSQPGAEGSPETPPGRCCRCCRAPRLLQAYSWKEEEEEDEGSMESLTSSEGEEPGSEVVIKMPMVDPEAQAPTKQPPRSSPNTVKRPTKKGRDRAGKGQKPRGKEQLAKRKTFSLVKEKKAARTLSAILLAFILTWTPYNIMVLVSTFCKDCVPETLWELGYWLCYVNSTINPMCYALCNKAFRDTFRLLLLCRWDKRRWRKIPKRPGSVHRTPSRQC
In short: (§2)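 A9L cells transfected with human M1 or M3 receptors, exposed to compound in medium with 10 mM LiCl and 10 mM HEPES (pH 7.4) for 60 min at 37 °C. IP in lysates measured by IPOne TR-FRET; efficacy expressed relative to full agonist (100%).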

[7] = target: T3, human muscarinic M3 receptors (Homo sapiens, UniProt P20309); test: IP production in A9L cells with human M3 receptors (IPOne TR-FRET), Example 28; assay type: cell-based
T3 construct: host or cells: A9L cells
T3 sequence (P20309 whole entry): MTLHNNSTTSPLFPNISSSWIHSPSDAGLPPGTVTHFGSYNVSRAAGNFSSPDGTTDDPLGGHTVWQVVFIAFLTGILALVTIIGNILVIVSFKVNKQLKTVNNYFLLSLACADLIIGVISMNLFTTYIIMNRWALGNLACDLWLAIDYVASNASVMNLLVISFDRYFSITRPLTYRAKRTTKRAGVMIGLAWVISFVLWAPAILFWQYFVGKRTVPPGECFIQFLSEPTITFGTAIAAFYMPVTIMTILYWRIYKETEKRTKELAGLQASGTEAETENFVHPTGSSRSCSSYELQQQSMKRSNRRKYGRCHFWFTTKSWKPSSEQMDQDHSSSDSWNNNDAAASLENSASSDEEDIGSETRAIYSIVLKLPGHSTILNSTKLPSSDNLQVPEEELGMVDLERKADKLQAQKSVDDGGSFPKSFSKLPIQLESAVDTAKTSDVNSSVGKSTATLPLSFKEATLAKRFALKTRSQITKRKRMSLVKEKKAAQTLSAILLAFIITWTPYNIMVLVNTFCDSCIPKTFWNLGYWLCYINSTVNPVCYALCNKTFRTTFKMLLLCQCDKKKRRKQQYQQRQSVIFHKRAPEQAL
In short: as §2

[8] = PAMPA test, Example 34; conditions: PAMPA
[9] = rat, in vivo, po
[10] = in vitro; conditions: PAMPA
[11] = percentage of maximal stimulation by carbachol
[12] = potency relative to carbachol at its EC50, semi-quantitative

SMILES: COc1cc2c(cc1OC)C(=O)C(CC1CCN(Cc3ccccc3)CC1)C2 (stereo not drawn) [Donepezil]
Mean D Score [1]: 70.35%

Loss at 6 hrs (%) [2]: 100%
SMILES: CCCCCCOc1nsnc1C1=CCCN(C)C1 [Xanomeline, reference compound]
Mean D Score [1]: 72.05%

extent of metabolism in FMO Supersomes (in words) [3]: almost completely metabolized
metabolism in rat liver microsomes (in words) [4]: nearly completely metabolized
metabolism in human liver microsomes (in words) [5]: nearly completely metabolized
potency and efficacy at M1 muscarinic receptors (in words) ([6]; huM1/A9L): reasonable potency and efficacy
huM1/A9L Smax [6, 11]: 72%
huM1/A9L ED50 relative to CCh* [6, 12]: + (+ potency 2-10x CCh)
huM3/A9L Smax [7, 11]: 39%
huM3/A9L ED50 relative to CCh* [7, 12]: + (+ potency 2-10x CCh)
Papp [8]: 12.8 ×10⁻⁶ cm/s
SMILES: Cc1noc(C2=CCCN(C)C2)n1 [Compound 36, 3-methyl-5-(1-methyl-1,2,5,6-tetrahydropyridin-3-yl)-1,2,4-oxadiazole]
selectivity between M1 and M3 receptors ([6]; huM1 versus huM3 A9L cells): shows some selectivity for M1 versus M3 receptors

Brain/plasma ratio [9]: Very low
Papp [10]: 0.26 ×10⁻⁶ cm/s
SMILES: CNC(=C[N+](=O)[O-])NCCSCc1ccc(CN(C)C)o1 [Ranitidine]
